The subject of this experiment is HBV. The experiment can be described thus: In vitro anti-HBV activity in HepG2.2.15 cell line (intracellular HBV DNA by qPCR at 1 μM). It is filed as cell-based. The note with it: Hepatitis B virus, 144 h; HepG2.2.15 cells, 1 μM compound, 6 days, intracellular HBV DNA as percentage compared to vehicle control (0.5% DMSO). On the procedure:
The stable transfected HBV cell line, called HepG2.2.15 cells was a valuable model with high reproducibility and commonly used for drug screening. To identify the anti-HBV activity, HepG2.2.15 cells were seeded at 5×10^5 cells/well with high glucose Dulbecco's modified Eagle medium (DMEM) containing 10% heat inactivated fetal bovine serum (FBS), 300 mg/L G418, non-essential amino acids (NEAA) 100 units/ml Antibiotic-Antimycotic, and allowed to stand for an overnight in an incubator set at 37° C. and 5% C02. HepG2.2.15 cells in each well were treated with the medium containing a compound (1 μM with 0.5% dimethyl sulfoxide (DMSO final concentration) for three days in the incubator. After that the medium was removed and fresh medium containing the compound was added to the cells for another 3 days. After 6 days of treatment, intracellular HBV DNA was extracted and determined by using quantitative real-time PCR (qPCR) technique with specific primers. Intrahepatic HBV DNA viral load was reported as percentage compared to vehicle control (0.5% DMSO) as shown in Table A.
“B” means % ranging between 80 and 90; “C” means % ranging between 70 and 80; “D” means % ranging between 60 and 70; “E” means % ranging between 45 and 60, “F” means %<45.
For orientation: In qPCR the cycle at which signal appears reflects the starting amount.

Molecule `O=C(Nc1cc(F)c(F)c(F)c1)[C@H]1CCN(C(=O)c2ccc(-c3ccccn3)[nH]2)C1` [Example 90, (S)-1-(5-(pyridin-2-yl)-1H-pyrrole-2-carbonyl)-N-(3,4,5-trifluorophenyl)pyrrolidine-3-carboxamide] had an activity at 1 µM of 70 to 80%. The value for `Cc1cc(NC(=O)[C@@H]2CN(C(=O)c3ccc(-c4c(C)ncnc4C)[nH]3)C[C@H]2C)ccc1F` [Example 168, (3S,4S)-1-(5-(4,6-dimethylpyrimidin-5-yl)-1H-pyrrole-2-carbonyl)-N-(4-fluoro-3-methylphenyl)-4-methylpyrrolidine-3-carboxamide] was 45 to 60%. The value for `Cc1c(-c2ccc(C(=O)N3CC[C@H](C(=O)Nc4cc(F)c(F)c(F)c4)C3)[nH]2)c2cccnc2n1C` [Example 153, (S)-1-(5-(1,2-dimethyl-1H-pyrrolo[2,3-b]pyridin-3-yl)-1H-pyrrole-2-carbonyl)-N-(3,4,5-trifluorophenyl)pyrrolidine-3-carboxamide] was less than 45%; that for `Cc1ncccc1-c1ccc(C(=O)N2CC[C@H](C(=O)Nc3cc(F)c(F)c(F)c3)C2)[nH]1` [Example 80, (S)-1-(5-(2-methylpyridin-3-yl)-1H-pyrrole-2-carbonyl)-N-(3,4,5-trifluorophenyl) pyrrolidine-3-carboxamide] was less than 45%. With `N#Cc1c(C(=O)N2CC[C@H](C(=O)Nc3cc(F)c(F)c(F)c3)C2)[nH]c2ncccc12` [Example 63, (S)-1-(3-cyano-1H-pyrrolo[2,3-b]pyridine-2-carbonyl)-N-(3,4,5-trifluorophenyl)pyrrolidine-3-carboxamide], the activity at 1 µM lay in the range of 70 to 80%. For the molecule `C[C@H]1[C@@H](C(=O)Nc2cc(F)c(F)c(F)c2)CCN1C(=O)c1cc2ncccc2[nH]1` [Example 64, (2S,3S)-2-methyl-1-(1H-pyrrolo[3,2-b]pyridine-2-carbonyl)-N-(3,4,5-trifluorophenyl) pyrrolidine-3-carboxamide], the activity at 1 µM lay within 70 to 80%. The value for `O=C(Nc1cc(F)c(F)c(F)c1)[C@H]1CCN(C(=O)c2[nH]ccc2Cl)C1` [Example 16, (S)-1-(3-chloro-1H-pyrrole-2-carbonyl)-N-(3,4,5-trifluorophenyl)pyrrolidine-3-carboxamide] was more than 90%. The value for `C[C@H]1[C@@H](C(=O)Nc2ccc(F)c(C#N)c2)CCN1C(=O)c1cc2cccnc2[nH]1` [Example 21, (2S,3S)—N-(3-cyano-4-fluorophenyl)-2-methyl-1-(1H-pyrrolo[2,3-b]pyridine-2-carbonyl) pyrrolidine-3-carboxamide] was more than 90%; that for `Cc1nn(CC(=O)N2CC(O)C2)c(C)c1-c1ccc(C(=O)N2CC[C@H](C(=O)Nc3cc(F)c(F)c(F)c3)C2)[nH]1` [Example 112, (S)-1-(5-(1-(2-(3-hydroxyazetidin-1-yl)-2-oxoethyl)-3,5-dimethyl-1H-pyrazol-4-yl)-1H-pyrrole-2-carbonyl)-N-(3,4,5-trifluorophenyl)pyrrolidine-3-carboxamide] was 60 to 70%; that for `N#Cc1cc(NC(=O)[C@H]2CCN(C(=O)c3ccc(-c4ccncc4)[nH]3)C2)ccc1F` [Example 78, (S)—N-(3-cyano-4-fluorophenyl)-1-(5-(pyridin-4-yl)-1H-pyrrole-2-carbonyl)pyrrolidine-3-carboxamide] was 70 to 80%.

`Cn1ccnc1-c1ccc(C(=O)N2CC[C@H](C(=O)Nc3cc(F)c(F)c(F)c3)C2)[nH]1` [Example 91, (S)-1-(5-(1-methyl-1H-imidazol-2-yl)-1H-pyrrole-2-carbonyl)-N-(3,4,5-trifluorophenyl)pyrrolidine-3-carboxamide]: the activity at 1 µM is less than 45%. Consider `N#Cc1c[nH]c(C(=O)N2CC[C@H](C(=O)Nc3ccc(F)c(Cl)c3)C2)c1` [Example 40, (S)—N-(3-chloro-4-fluorophenyl)-1-(4-cyano-1H-pyrrole-2-carbonyl)pyrrolidine-3-carboxamide], for which the activity at 1 µM was more than 90%.

(Values after US20230391752A1, “PYRROLIDINE-3-CARBOXAMIDE DERIVATIVES AND RELATED USES” (Chulalongkorn University, priority 2020, published 2023).)
